Results as given in paper PMC9364363 (RSC Advances, 2022).
≈ marks a conversion by molar mass, not a printed value. Where two headings read alike, the source gives them in different places.

How the values were obtained:
[1] = system: Mtb H37Ra^lux; experiment: microbe, parasite or virus in culture; format: cell-based, Mycobacterium tuberculosis; conditions: for IC50: read-out: Mtb H37Ra^lux IC50; for MIC: read-out: Mtb H37Ra^lux IC90 (MIC)
[2] = system: M. avium subsp. avium; experiment: microbe, parasite or virus in culture; format: cell-based, Mycobacterium avium subsp. avium; conditions: read-out: IC50 M. avium subsp. avium
[3] = system: M. intracellulare; experiment: microbe, parasite or virus in culture; format: cell-based, Mycobacterium intracellulare; conditions: read-out: IC50 M. intracellulare
[4] = system: M. smegmatis; format: cell-based, Mycobacterium smegmatis; conditions: read-out: IC50 M. smegmatis; luminometry, 3 days
[5] = system: M. abscessus; experiment: microbe, parasite or virus in culture; format: cell-based, Mycobacterium abscessus; conditions: read-out: IC50 M. abscessus
[6] = system: MRC-5 lung fibroblast cell line
[7] = in vitro; conditions: human
[8] = Mycobacterium tuberculosis, H37RA, 168 h
[9] = Mycobacterium intracellulare, 168 h
[10] = Mycobacteroides abscessus, 72 h

Q: With “(4-(2-(4-((1H-Benzo-[d]-imidazole-2-yl)-thio)-1H-1,2,3-triazol-1-yl)-ethyl)-piperazin-1-yl)(2-methylbenzo-[d]-imidazo[2,1-b]-thiazol-3-yl)-methanone [IT16]” as the compound, how does the “Mtb H37Ra^lux IC90 (MIC)” value [1] read?
A: Its value is 14.49 µM.

Q: And the IC50 [1]?
A: Its IC50 is 7.09 µM.

Q: And the IC50 ([2]; luminometry, 7 days)?
A: The IC50 was 124 µM.

Q: And the IC50 ([3]; luminometry, 7 days)?
A: Its IC50 is over 128 µM.

Q: What about the IC50 [4] of the same compound?
A: The IC50 was 103 µM.

Q: And the IC50 ([5]; luminometry, 3 days)?
A: The IC50 was over 128 µM.

Q: What about the “T.I. CC50/IC50” value [6] of the same compound?
A: Its value is 8.2.

Q: Which IC50 [1, 8] does the source give for `Cc1nc2sc3ccccc3n2c1C(=O)N1CCN(Cc2cn(-c3cccc([N+](=O)[O-])c3)nn2)CC1` [IT08, (2-Methylbenzo-[d]-imidazo-[2,1-b]-thiazol-3-yl)(4-((1-(3-nitrophenyl)-1H-1,2,3-triazol-4-yl)-methyl)-piperazin-1-yl)-methanone] here?
A: The IC50 was 2.96 µM.

Q: What about the MIC [1, 8] of the same compound?
A: Its MIC is 11.8 µM (≈ 5.94 µg/mL).

Q: And the IC50 ([2]; Mycobacterium avium, 168 h)?
A: Its IC50 is over 128 µM.

Q: And the IC50 [3, 9]?
A: The IC50 was over 128 µM.

Q: And the IC50 [5, 10]?
A: The IC50 was over 128 µM.

Q: And the “T.I. CC50/IC50” value [6]?
A: Its value is 43.2.

Q: And the CC50 [7]?
A: Its CC50 is over 128 µM.

Q: What does the source list for `CCCCCCCCCc1cn(CCN2CCN(C(=O)c3c(C)nc4sccn34)CC2)nn1` [IT03, (6-Methylimidazo-[2,1-b]-thiazol-5-yl)(4-(2-(4-nonyl-1H-1,2,3-triazol-1-yl)-ethyl)-piperazin-1-yl)-methanone]?
A: IC50 [1, 8]: 2.88 µM; MIC [1, 8]: 10.2 µM (≈ 4.82 µg/mL); IC50 ([2]; Mycobacterium avium, 168 h): > 128 µM; IC50 [3, 9]: 63.4 µM; IC50 [5, 10]: > 128 µM; T.I. CC50/IC50 [6]: 15.8; CC50 [7]: 45.5 µM

Q: With `Cc1nc2sccn2c1C(=O)N1CCN(CCn2cc(-c3ccc(C(C)(C)C)cc3)nn2)CC1` [IT02, (4-(2-(4-(4-(tert-Butyl)phenyl)-1H-1,2,3-triazol-1-yl)-ethyl)-piperazin-1-yl)(6-methylimidazo-[2,1-b]-thiazol-5-yl)-methanone] as the compound, how does the IC50 [1, 8] read?
A: The IC50 was 5.2 µM.

Q: And the MIC [1, 8]?
A: Its MIC is 12.8 µM (≈ 6.13 µg/mL).

Q: What about the IC50 ([2]; Mycobacterium avium, 168 h) of the same compound?
A: Its IC50 is 126 µM.

Q: What about the IC50 [3, 9] of the same compound?
A: Its IC50 is 119 µM.

Q: What about the IC50 [5, 10] of the same compound?
A: Its IC50 is over 128 µM.

Q: And the “T.I. CC50/IC50” value [6]?
A: The value was 8.8.

Q: And the CC50 [7]?
A: The CC50 was 46 µM.

Q: Which IC50 [1, 8] does the source give for `Cc1nc2sc3ccccc3n2c1C(=O)N1CCN(CCn2cc(-c3ccc(C(C)(C)C)cc3)nn2)CC1` [IT13, (4-(2-(4-(4-(tert-Butyl)-phenyl)-1H-1,2,3-triazol-1-yl)-ethyl)-piperazin-1-yl)(2-methylbenzo-[d]-imidazo-[2,1-b]-thiazol-3-yl)-methanone] here?
A: Its IC50 is 3.19 µM.

Q: What about the MIC [1, 8] of the same compound?
A: The MIC was 7.24 µM (≈ 3.82 µg/mL).

Q: What about the IC50 ([2]; Mycobacterium avium, 168 h) of the same compound?
A: The IC50 was 17.1 µM.

Q: What about the IC50 [3, 9] of the same compound?
A: The IC50 was over 128 µM.

Q: What about the IC50 [5, 10] of the same compound?
A: Its IC50 is over 128 µM.

Q: What about the “T.I. CC50/IC50” value [6] of the same compound?
A: Its value is 13.7.

Q: What about the CC50 [7] of the same compound?
A: The CC50 was 43.7 µM.

Q: Which results are given for `Cc1nc2sccn2c1C(=O)N1CCN(CCn2cc(CSc3nc4ccccc4[nH]3)nn2)CC1` [IT04, (4-(2-(4-(((1H-Benzo-[d]-imidazole-2-yl)-thio)-methyl)-1H-1,2,3-triazol-1-yl)-ethyl)-piperazin-1-yl)(6-methylimidazo-[2,1-b]-thiazol-5-yl)-methanone]?
A: IC50 [1, 8]: 3.94 µM; MIC [1, 8]: 14.6 µM (≈ 7.41 µg/mL); IC50 ([2]; Mycobacterium avium, 168 h): > 128 µM; IC50 [3, 9]: > 128 µM; IC50 [5, 10]: > 128 µM; T.I. CC50/IC50 [6]: 32.5; CC50 [7]: > 128 µM

Q: Which results are given for `Cc1ccc(-n2cc(CN3CCN(C(=O)c4c(C)nc5sc6ccccc6n45)CC3)nn2)cc1C` [IT09, (4-((1-(3,4-Dimethylphenyl)-1H-1,2,3-triazol-4-yl)-methyl)-piperazin-1-yl)(2-methylbenzo-[d]-imidazo-[2,1-b]-thiazol-3-yl)-methanone]?
A: IC50 [1, 8]: 3.46 µM; MIC [1, 8]: 13.5 µM (≈ 6.55 µg/mL); IC50 ([2]; Mycobacterium avium, 168 h): > 128 µM; IC50 [3, 9]: > 128 µM; IC50 [5, 10]: > 128 µM; T.I. CC50/IC50 [6]: 37.0; CC50 [7]: > 128 µM
